Test results published in patent US8178577B2, “Tricyclic derivatives as potent and selective histone deacetylase inhibitors” (Shenzhen Chipscreen Biosciences Ltd., priority 2008, dated 2012).

Columns and labels:
HDAC3 = biological target: T1, HDAC3 (Homo sapiens, UniProt O15379); assay: gdf11 reporter gene assay in HeLa cells; format: cell-based; conditions: HeLa, 24 h, read-out: % of SAHA Response for HDAC3 at 10 μM (gdf11 reporter gene)
T1 construct: endogenous in cells; host or cells: HeLa
Protocol: HDAC subtype selectivity inhibition assay of tested compounds was carried out by several reporter gene assays experiments. Briefly, HeLa cells were seeded in 96-well plates the day before transfection to give a confluence of 50-80%. Cells were transfected with one of reporter gene plasmids containing a promoter sequences or response elements upstream of a luciferase gene construct using FuGene6 transfection reagent according to the manufacturer's instructions (Roche). The promoter or response elements including p21-promoter, gdf11-promoter, serum response element (SRE), MEF-binding element were fused upstream to the luciferase gene reporter construct. For normalizing the transfection efficiency, a GFP expression plasmid was cotransfected. Cells were allowed to express protein for 24 hours followed by addition of individual compounds or the vehicle (DMSO). 24 hours later the cells were harvested, and the luciferase assays were performed using the luciferase assay kit according to the manufacturer's instructions (Promega). To normalize the data from the luciferase assays, β-galactosidase activity from transfected cells was measured using a kit (Promega) as instructed by the manufacturer.

[1] = biological target: T2, (Homo sapiens, UniProt Q9UBN7); assay: Cytoblot assay of acetylation of α-tubulin in A549 cells; format: cell-based; conditions: 24 hours
T2 construct: endogenous in cells; host or cells: A549
T2 sequence (Q9UBN7 1-1215): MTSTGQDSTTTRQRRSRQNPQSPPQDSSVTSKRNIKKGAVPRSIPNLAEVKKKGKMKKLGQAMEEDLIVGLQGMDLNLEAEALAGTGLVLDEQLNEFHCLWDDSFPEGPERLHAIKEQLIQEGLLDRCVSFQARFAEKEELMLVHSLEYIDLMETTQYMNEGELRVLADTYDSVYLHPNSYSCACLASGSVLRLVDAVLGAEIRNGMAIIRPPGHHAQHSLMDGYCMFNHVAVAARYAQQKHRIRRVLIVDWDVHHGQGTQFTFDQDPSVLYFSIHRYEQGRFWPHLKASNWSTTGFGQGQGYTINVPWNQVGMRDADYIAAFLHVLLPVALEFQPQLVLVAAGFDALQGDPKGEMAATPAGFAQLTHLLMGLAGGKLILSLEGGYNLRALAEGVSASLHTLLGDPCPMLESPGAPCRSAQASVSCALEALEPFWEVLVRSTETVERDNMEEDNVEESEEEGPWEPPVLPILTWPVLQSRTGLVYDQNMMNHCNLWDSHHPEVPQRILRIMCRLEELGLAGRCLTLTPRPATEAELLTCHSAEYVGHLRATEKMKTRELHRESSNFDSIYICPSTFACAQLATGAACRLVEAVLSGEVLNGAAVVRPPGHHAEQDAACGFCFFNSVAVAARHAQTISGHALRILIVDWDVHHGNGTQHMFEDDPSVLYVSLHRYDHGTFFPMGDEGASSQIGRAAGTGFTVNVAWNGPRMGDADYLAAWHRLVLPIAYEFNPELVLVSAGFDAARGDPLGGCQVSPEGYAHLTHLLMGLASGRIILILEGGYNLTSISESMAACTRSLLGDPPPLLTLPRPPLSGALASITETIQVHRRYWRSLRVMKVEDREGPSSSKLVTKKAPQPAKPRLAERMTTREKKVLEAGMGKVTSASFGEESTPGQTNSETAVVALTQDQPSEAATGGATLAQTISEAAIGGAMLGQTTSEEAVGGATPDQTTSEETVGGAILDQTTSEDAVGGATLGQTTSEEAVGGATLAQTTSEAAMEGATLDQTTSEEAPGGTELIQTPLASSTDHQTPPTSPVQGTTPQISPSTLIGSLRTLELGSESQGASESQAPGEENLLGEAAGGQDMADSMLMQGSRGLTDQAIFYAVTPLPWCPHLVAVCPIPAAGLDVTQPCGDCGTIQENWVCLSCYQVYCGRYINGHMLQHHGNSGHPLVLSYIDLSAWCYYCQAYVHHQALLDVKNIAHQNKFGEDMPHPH
Protocol: This assay is used to measure in vivo inhibition of HDAC6 in a cytoblot assay.
• 1. […] Compounds were added and incubated for 24 hours at 37° C. • 3.

T1 sequence (O15379 whole entry): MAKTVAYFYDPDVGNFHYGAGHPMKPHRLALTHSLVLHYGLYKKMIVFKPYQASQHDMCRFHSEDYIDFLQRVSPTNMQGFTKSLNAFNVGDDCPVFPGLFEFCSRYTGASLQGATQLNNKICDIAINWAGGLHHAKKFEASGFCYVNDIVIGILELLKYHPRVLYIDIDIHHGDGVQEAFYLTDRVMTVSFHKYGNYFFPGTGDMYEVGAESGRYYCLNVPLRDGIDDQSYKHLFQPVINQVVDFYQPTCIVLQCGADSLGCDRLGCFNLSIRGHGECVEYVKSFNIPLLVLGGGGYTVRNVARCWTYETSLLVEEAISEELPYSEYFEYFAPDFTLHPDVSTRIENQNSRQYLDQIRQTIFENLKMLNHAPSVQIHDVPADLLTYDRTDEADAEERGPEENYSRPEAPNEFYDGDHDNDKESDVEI
T1 sequence (Q9Y618 whole entry partner): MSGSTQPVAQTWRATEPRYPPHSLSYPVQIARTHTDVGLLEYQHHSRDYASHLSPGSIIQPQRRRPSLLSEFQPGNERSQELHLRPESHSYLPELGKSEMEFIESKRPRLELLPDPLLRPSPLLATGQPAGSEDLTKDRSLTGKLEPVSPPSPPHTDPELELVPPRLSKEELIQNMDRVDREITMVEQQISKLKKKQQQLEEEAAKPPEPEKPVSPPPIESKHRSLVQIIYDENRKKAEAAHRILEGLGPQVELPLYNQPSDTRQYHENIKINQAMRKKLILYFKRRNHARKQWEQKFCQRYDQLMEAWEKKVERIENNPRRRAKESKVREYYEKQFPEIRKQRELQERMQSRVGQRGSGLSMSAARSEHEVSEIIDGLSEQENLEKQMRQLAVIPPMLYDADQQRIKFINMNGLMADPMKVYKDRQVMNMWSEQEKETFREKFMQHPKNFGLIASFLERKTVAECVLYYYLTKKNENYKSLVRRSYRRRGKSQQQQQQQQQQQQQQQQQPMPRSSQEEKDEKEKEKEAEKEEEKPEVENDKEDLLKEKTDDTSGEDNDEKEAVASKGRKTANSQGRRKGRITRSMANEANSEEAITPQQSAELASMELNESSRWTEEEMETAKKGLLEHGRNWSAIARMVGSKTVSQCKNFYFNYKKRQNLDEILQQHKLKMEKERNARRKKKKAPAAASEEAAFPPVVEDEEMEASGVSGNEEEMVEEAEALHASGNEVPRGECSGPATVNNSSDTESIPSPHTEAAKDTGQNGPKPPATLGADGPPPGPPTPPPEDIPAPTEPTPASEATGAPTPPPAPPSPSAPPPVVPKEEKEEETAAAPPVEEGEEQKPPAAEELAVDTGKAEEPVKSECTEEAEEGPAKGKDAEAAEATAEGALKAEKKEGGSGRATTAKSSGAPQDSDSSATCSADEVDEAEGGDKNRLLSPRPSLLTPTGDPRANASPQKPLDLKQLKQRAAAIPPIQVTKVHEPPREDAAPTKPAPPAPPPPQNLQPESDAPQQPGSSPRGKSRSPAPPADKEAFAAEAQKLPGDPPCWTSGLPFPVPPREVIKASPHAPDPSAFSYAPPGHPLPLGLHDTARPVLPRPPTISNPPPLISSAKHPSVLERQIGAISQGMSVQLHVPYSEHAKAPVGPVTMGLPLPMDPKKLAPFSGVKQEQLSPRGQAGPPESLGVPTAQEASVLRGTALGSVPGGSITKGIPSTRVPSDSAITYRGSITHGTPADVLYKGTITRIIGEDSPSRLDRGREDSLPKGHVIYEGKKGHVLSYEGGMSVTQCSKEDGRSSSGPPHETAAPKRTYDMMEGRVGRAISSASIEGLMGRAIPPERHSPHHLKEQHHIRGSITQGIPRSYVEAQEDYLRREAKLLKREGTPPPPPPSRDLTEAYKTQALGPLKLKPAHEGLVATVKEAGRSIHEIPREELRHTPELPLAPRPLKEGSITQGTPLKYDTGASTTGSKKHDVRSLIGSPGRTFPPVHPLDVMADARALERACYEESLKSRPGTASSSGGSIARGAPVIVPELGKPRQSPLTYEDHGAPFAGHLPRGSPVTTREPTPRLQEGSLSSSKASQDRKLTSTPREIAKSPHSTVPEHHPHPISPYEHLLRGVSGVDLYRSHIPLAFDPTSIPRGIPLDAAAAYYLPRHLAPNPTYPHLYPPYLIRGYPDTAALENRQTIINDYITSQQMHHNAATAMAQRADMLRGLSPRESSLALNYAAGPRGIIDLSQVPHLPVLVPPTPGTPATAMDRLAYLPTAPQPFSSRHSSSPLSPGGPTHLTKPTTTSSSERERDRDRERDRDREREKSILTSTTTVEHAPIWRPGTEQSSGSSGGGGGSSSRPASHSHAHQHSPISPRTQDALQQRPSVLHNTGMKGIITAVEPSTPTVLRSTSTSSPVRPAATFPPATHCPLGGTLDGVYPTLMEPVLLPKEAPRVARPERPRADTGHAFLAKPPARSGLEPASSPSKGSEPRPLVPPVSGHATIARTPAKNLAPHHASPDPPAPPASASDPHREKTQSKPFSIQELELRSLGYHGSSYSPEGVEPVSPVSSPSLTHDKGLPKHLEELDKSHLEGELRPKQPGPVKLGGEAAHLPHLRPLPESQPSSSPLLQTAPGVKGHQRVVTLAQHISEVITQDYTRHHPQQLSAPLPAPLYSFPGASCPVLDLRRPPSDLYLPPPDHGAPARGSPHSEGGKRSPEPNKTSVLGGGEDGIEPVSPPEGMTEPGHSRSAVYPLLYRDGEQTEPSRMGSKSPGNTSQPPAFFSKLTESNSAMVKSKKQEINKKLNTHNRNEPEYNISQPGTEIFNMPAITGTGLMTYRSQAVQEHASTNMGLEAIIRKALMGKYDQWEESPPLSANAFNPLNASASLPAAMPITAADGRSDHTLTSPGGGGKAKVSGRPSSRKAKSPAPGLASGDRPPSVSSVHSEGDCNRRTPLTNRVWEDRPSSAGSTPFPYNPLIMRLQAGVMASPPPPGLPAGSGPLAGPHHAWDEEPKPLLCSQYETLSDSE

SMILES | activation at 10 µM (HDAC3) | Fold of tubulin acetylation (HDAC7 at 10 μM) [1]
Nc1ccccc1NC(=O)CCCCCNC(=O)C=C1c2ccccc2-c2ccccc21 [Example 13, 6-(2-(9H-fluoren-9-ylidene)acetamido)-N-(2-aminophenyl)hexanamide] | 66% | 0.74 Fold
Nc1cc(F)ccc1NC(=O)CCCCCNC(=O)C=C1c2ccccc2-c2ccccc21 [Example 12, 6-(2-(9H-fluoren-9-ylidene)acetamido)-N-(2-amino-4-fluorophenyl)hexanamide] | 26% | 0.79 Fold
